Experiment [1] relates to Jurkat. Description: Compound was assessed for NF-kB activity using human T cell leukemia Jurkat cells; Less toxic. It counts as functional, cell-based.
The species named for experiment [2] is Mus musculus. Description: Compound was tested for antiarthritic effects on type-II collagen induced arthritis in DBA1/J mice; inhibited. Type of experiment: functional, organism-based.
Experiment [3] relates to Jurkat. Description: Compound was assessed for NF-kB activity using human T cell leukemia Jurkat cells; more toxic. It counts as functional, cell-based.

As to `O=C(NC1=CC(=O)[C@H]2O[C@H]2[C@H]1O)c1ccccc1O`, the Activity result in experiment [1] is “Toxic”; in experiment [2], “Inhibited”. In the case of `O=C(NC1=CC(O)C2OC2C1=O)c1ccccc1O` (stereo not drawn), the Activity entry in experiment [3] is “Toxic”.

The values above are taken from ChEMBL document CHEMBL1133347, “Synthesis of NF-kappaB activation inhibitors derived from epoxyquinomicin C” (Bioorg Med Chem Lett, 2000).
